Test systems include TK-10; T47D; NCI-H522; NCI-H23; OVCAR-4; 786-0; OVCAR-8; RXF 393; MDA-N; K562; U-251; LOX IMVI; SW-620; SNB-19; NCI/ADR-RES; BT-549; HOP-62; ACHN.
Common to all, as to experiment: NCI anticancer screen, dose series, 48 h

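Step 1: Grow cells in 96-well plates. Step 2: Expose to compound for 48 hours at 5 concentrations. Step 3: Interpolate endpoints linearly; if unreached, use highest concentration. Abbreviation: GI50, concentration required for 50% inhibition of growth.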 Activity calls are given as the source filed them. No stated cut-off is given here; in the data, active = GI50 up to about 1.1 µM and inactive = higher.

Turning to `Clc1ccc(OCC2NC3CCC2CC3)cn1` (stereo unspecified), the GI50 was 42.3 µM (inactive) in the test on TK-10; 29.8 µM (inactive) in the test with T47D; 19 µM (inactive) in the test on NCI-H522; 49.2 µM (inactive) in the test with NCI-H23; 37.9 µM (inactive) in the test on OVCAR-4; 18.3 µM (inactive) in the test on 786-0. The GI50 is 31.5 µM (inactive) in the test on OVCAR-8; 36.9 µM (inactive) in the test on RXF 393; 16.8 µM (inactive) with MDA-N; 17.5 µM (inactive) in the test with K562; 16.3 µM (inactive) in the test with U-251; 18.4 µM (inactive) in the test with LOX IMVI. Further, the GI50 is 22.7 µM (inactive) in the test with SW-620; 34.4 µM (inactive) in the test on SNB-19; 50.1 µM (inactive) in the test on NCI/ADR-RES; 68.7 µM (inactive) with BT-549; 22.8 µM (inactive) with HOP-62; 33.3 µM (inactive) in the test with ACHN.
Consider `CCN(CC)C(=S)SS(=O)(=O)c1ccc(NC(C)=O)cc1`, for which the GI50 in the test with TK-10 was 32.6 µM (inactive); with T47D, 24.9 µM (inactive); in the test with NCI-H522 it was < 0.0213 µM (active); with NCI-H23 it was 24 µM (inactive); in the test with OVCAR-4, 20.4 µM (inactive); in the test on 786-0 it was 17.5 µM (inactive). Also, the GI50 is 15.7 µM (inactive) with OVCAR-8; 15.2 µM (inactive) in the test on RXF 393; 27.6 µM (inactive) in the test with MDA-N; 33.9 µM (inactive) in the test with K562; 18 µM (inactive) in the test on U-251; 15.9 µM (inactive) in the test on LOX IMVI. In addition, the GI50 in the test on SW-620 is 16.7 µM (inactive); in the test with SNB-19 it was 38.1 µM (inactive); in the test with NCI/ADR-RES, 28 µM (inactive); in the test on BT-549, 39.3 µM (inactive); in the test with HOP-62 it was 18.1 µM (inactive); in the test with ACHN, 36.1 µM (inactive).
As to `CN(C)CCNC1=Nc2ccccc2C(=S)N2CSCC12` (stereo unspecified), the GI50 in the test with TK-10, with T47D, in the test with NCI-H522, with OVCAR-4, with 786-0 and in the test on OVCAR-8 was > 100 µM (inactive) each time. Moreover, the GI50 in the test with RXF 393 was 59.3 µM (inactive); in the test on MDA-N it was > 100 µM (inactive); with K562 it was > 100 µM (inactive); in the test on U-251 it was > 100 µM (inactive); in the test on LOX IMVI, > 100 µM (inactive); in the test with SW-620, > 100 µM (inactive). Also, the GI50 in the test with SNB-19, with NCI/ADR-RES, with BT-549, in the test on HOP-62 and in the test on ACHN was > 100 µM (inactive) in each case.
On to `COc1cc2c(cc1OC)C(=O)/C(=C/c1cc(C)c(O)c(C)c1)C2`, for which the GI50 is > 76.7 µM (inactive) in the test with TK-10; > 100 µM (inactive) with T47D; < 0.01 µM (active) with NCI-H522; < 0.01 µM (active) with NCI-H23; > 100 µM (inactive) with OVCAR-4; < 0.0184 µM (active) with 786-0. Also, the GI50 in the test on RXF 393 was < 0.0504 µM (active); in the test on MDA-N it was < 0.01 µM (active); in the test on K562, < 0.01 µM (active); with U-251, < 0.01 µM (active); with LOX IMVI, < 0.0259 µM (active); with SW-620, < 0.0106 µM (active). The GI50 is 0.403 µM (active) with NCI/ADR-RES, > 100 µM (inactive) with BT-549, < 0.01 µM (active) with HOP-62 and 0.0603 µM (active) in the test on ACHN.
In the case of `O=C1C(Cl)=C(N2C(=O)CCCC2=O)C(=O)c2ccccc21`, the GI50 was 17.5 µM (inactive) with TK-10; 22.9 µM (inactive) with T47D; 1.84 µM (inactive) in the test on NCI-H522; 17.2 µM (inactive) with NCI-H23; 16.9 µM (inactive) in the test with 786-0; 11.7 µM (inactive) with OVCAR-8. Besides, the GI50 with RXF 393 was 15.7 µM (inactive); with MDA-N it was 17.2 µM (inactive); in the test on K562 it was 2.7 µM (inactive); with U-251, 26 µM (inactive); in the test on LOX IMVI it was 20.6 µM (inactive); in the test on SW-620 it was 20.9 µM (inactive). For the same compound, the GI50 in the test with SNB-19 is > 10 µM (inactive); in the test on NCI/ADR-RES, 22.6 µM (inactive); in the test with BT-549, 20.3 µM (inactive); with HOP-62, > 100 µM (inactive); in the test with ACHN, 8.87 µM (inactive).
Regarding `C[N+](C)(CCNC(=O)c1cccc2cc3ccccc3nc12)Cc1ccc([N+](=O)[O-])s1`, the GI50 in the test with TK-10, in the test on T47D, in the test on NCI-H522, with NCI-H23, in the test with 786-0 and in the test with OVCAR-8 was > 25 µM (inactive) in each case. For the same compound, the GI50 in the test with RXF 393, in the test on MDA-N, with K562, in the test with U-251, in the test on LOX IMVI and with SW-620 was > 25 µM (inactive) each time. Moreover, the GI50 with NCI/ADR-RES, in the test on BT-549, in the test with HOP-62 and in the test with ACHN was > 25 µM (inactive) each time.
Take `COc1ccc2oc(=O)c(-c3cc4c(c(C)n3)c(=O)oc3ccc(OC)cc34)cc2c1`: the GI50 in the test with TK-10 was > 100 µM (inactive); in the test on T47D, > 100 µM (inactive); in the test on NCI-H522, > 100 µM (inactive); with NCI-H23 it was > 100 µM (inactive); with 786-0, 1.94 µM (inactive); with OVCAR-8 it was > 100 µM (inactive). Moreover, the GI50 with RXF 393, with MDA-N, with K562, in the test with U-251, with LOX IMVI and with SW-620 was > 100 µM (inactive) each time. Also, the GI50 with SNB-19 is 25.5 µM (inactive); in the test on NCI/ADR-RES, > 100 µM (inactive); with BT-549 it was > 100 µM (inactive); with HOP-62, 30.4 µM (inactive); in the test on ACHN, 27.2 µM (inactive).
As to `O=C(c1ccccc1)C1C[C@H]2CO[C@H](c3ccccc3)N2C1=O` (stereo partly specified), the GI50 in the test with TK-10, in the test on T47D, in the test with NCI-H522, in the test with NCI-H23, in the test on OVCAR-4 and with 786-0 was > 100 µM (inactive) in each case. Moreover, the GI50 in the test with OVCAR-8, in the test with RXF 393, with MDA-N, with K562, in the test with U-251 and with LOX IMVI was > 100 µM (inactive) in each case. For the same compound, the GI50 with SW-620, in the test on SNB-19, in the test with NCI/ADR-RES, in the test on BT-549 and in the test with ACHN was > 100 µM (inactive) each time.
